In PubChem BioAssay AID1963427 (Molecular Pharmacology Branch, DTP, NCI, 2024):

Test system: 317291-083-R-J1-PDC complex spheroid growth
Assay: Anticancer human tumor 317291-083-R-J1-PDC patient-derived soft tissue sarcoma cell line growth inhibition [Asc]
Settings: for IC50: curve of first compound; for viability, T/C: stronger effect = lower value
Procedure, shortened: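 Tumor cells were grown as complex spheroids with human endothelial cells (HUVEC) and human mesenchymal stem cells as stroma. Agents were tested alone and in combination, in half-log steps down from the clinical Cmax, or from 10 microM where Cmax was unknown.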
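Also: compound exposure lasted seven days after spheroids formed for three days.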
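For viability, T/C in this document: 100% = DMSO vehicle control wells.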

Compound C=CC(=O)N1CCN(c2nc(=O)n(-c3c(C)ccnc3C(C)C)c3nc(-c4c(O)cccc4F)c(F)cc23)C(C)C1 (centres undefined) + CNC(C)C(=O)NC1CN(S(=O)(=O)c2cccc(S(=O)(=O)N3CCC4CCC(C(=O)NC(c5ccccc5)c5ccccc5)N4C(=O)C(NC(=O)C(C)NC)C3)c2)CCC2CCC(C(=O)NC(c3ccccc3)c3ccccc3)N2C1=O has an IC50 (second compound 0.00316 µM) of 9.72 µM, an IC50 (second compound 0.01 µM) of over 10 µM and an IC50 (second compound 0.0316 µM) of 5.56 µM. For the same compound, the IC50 (second compound 0.1 µM) was 4.4 µM, the IC50 (second compound 0.316 µM) was 1.09 µM and the IC50 (second compound 1 µM) was under 0.0316 µM. The viability, T/C (second compound 0.00316 µM, first compound 0.0316 µM) was 96%, the viability, T/C (second compound 0.00316 µM, first compound 0.1 µM) was 100% and the viability, T/C (second compound 0.00316 µM, first compound 0.316 µM) was 85.2%. It also gave a viability, T/C (second compound 0.00316 µM, first compound 1 µM) of 91.3%, a viability, T/C (second compound 0.00316 µM, first compound 3.16 µM) of 93.5% and a viability, T/C (second compound 0.00316 µM, first compound 10 µM) of 48.9%. For the same compound, the viability, T/C (second compound 0.01 µM, first compound 0.0316 µM) was 92.9%, the viability, T/C (second compound 0.01 µM, first compound 0.1 µM) was 77.4% and the viability, T/C (second compound 0.01 µM, first compound 0.316 µM) was 83.3%. The viability, T/C (second compound 0.01 µM, first compound 1 µM) was 97.1%, the viability, T/C (second compound 0.01 µM, first compound 3.16 µM) was 62.5% and the viability, T/C (second compound 0.01 µM, first compound 10 µM) was 56.9%. It also gave a viability, T/C (second compound 0.0316 µM, first compound 0.0316 µM) of 93.1%, a viability, T/C (second compound 0.0316 µM, first compound 0.1 µM) of 70.1% and a viability, T/C (second compound 0.0316 µM, first compound 0.316 µM) of 77.4%. For the same compound, the viability, T/C (second compound 0.0316 µM, first compound 1 µM) was 73.7%, the viability, T/C (second compound 0.0316 µM, first compound 3.16 µM) was 71.7% and the viability, T/C (second compound 0.0316 µM, first compound 10 µM) was 28.8%. For the same compound, the viability, T/C (second compound 0.1 µM, first compound 0.0316 µM) was 68.7%, the viability, T/C (second compound 0.1 µM, first compound 0.1 µM) was 54.2% and the viability, T/C (second compound 0.1 µM, first compound 0.316 µM) was 59.9%. It also gave a viability, T/C (second compound 0.1 µM, first compound 1 µM) of 62.8%, a viability, T/C (second compound 0.1 µM, first compound 3.16 µM) of 57.6% and a viability, T/C (second compound 0.1 µM, first compound 10 µM) of 30.4%. For the same compound, the viability, T/C (second compound 0.316 µM, first compound 0.0316 µM) was 57.2%, the viability, T/C (second compound 0.316 µM, first compound 0.1 µM) was 42.9% and the viability, T/C (second compound 0.316 µM, first compound 0.316 µM) was 62.1%. The viability, T/C (second compound 0.316 µM, first compound 1 µM) was 48.9%, the viability, T/C (second compound 0.316 µM, first compound 3.16 µM) was 39% and the viability, T/C (second compound 0.316 µM, first compound 10 µM) was 23.5%. The viability, T/C (second compound 1 µM, first compound 0.0316 µM) was 49%, the viability, T/C (second compound 1 µM, first compound 0.1 µM) was 28.6% and the viability, T/C (second compound 1 µM, first compound 0.316 µM) was 32.2%. It also gave a viability, T/C (second compound 1 µM, first compound 1 µM) of 35%, a viability, T/C (second compound 1 µM, first compound 3.16 µM) of 30.6% and a viability, T/C (second compound 1 µM, first compound 10 µM) of 13.5%.

CCN1C(C(=O)NC23CCC(C(=O)O)(CC2)CC3)C(c2cccc(Cl)c2F)C2(C(=O)Nc3cc(Cl)ccc32)C12CCCCC2 (centres undefined) + CNC(C)C(=O)NC1CN(S(=O)(=O)c2cccc(S(=O)(=O)N3CCC4CCC(C(=O)NC(c5ccccc5)c5ccccc5)N4C(=O)C(NC(=O)C(C)NC)C3)c2)CCC2CCC(C(=O)NC(c3ccccc3)c3ccccc3)N2C1=O gave an IC50 (second compound 0.00316 µM) of over 3 µM, an IC50 (second compound 0.01 µM) of over 3 µM and an IC50 (second compound 0.0316 µM) of over 3 µM. For the same compound, the IC50 (second compound 0.1 µM) was over 3 µM, the IC50 (second compound 0.316 µM) was under 0.00949 µM and the IC50 (second compound 1 µM) was under 0.00949 µM. The viability, T/C (second compound 0.00316 µM, first compound 0.00949 µM) was 86%, the viability, T/C (second compound 0.00316 µM, first compound 0.03 µM) was 113% and the viability, T/C (second compound 0.00316 µM, first compound 0.0949 µM) was 100%. For the same compound, the viability, T/C (second compound 0.00316 µM, first compound 0.3 µM) was 108%, the viability, T/C (second compound 0.00316 µM, first compound 0.949 µM) was 84.6% and the viability, T/C (second compound 0.00316 µM, first compound 3 µM) was 65.1%. The viability, T/C (second compound 0.01 µM, first compound 0.00949 µM) was 68.5%, the viability, T/C (second compound 0.01 µM, first compound 0.03 µM) was 95.9% and the viability, T/C (second compound 0.01 µM, first compound 0.0949 µM) was 83.7%. For the same compound, the viability, T/C (second compound 0.01 µM, first compound 0.3 µM) was 71.9%, the viability, T/C (second compound 0.01 µM, first compound 0.949 µM) was 63.3% and the viability, T/C (second compound 0.01 µM, first compound 3 µM) was 56.1%. For the same compound, the viability, T/C (second compound 0.0316 µM, first compound 0.00949 µM) was 82.5%, the viability, T/C (second compound 0.0316 µM, first compound 0.03 µM) was 85.6% and the viability, T/C (second compound 0.0316 µM, first compound 0.0949 µM) was 79.2%. For the same compound, the viability, T/C (second compound 0.0316 µM, first compound 0.3 µM) was 78.1%, the viability, T/C (second compound 0.0316 µM, first compound 0.949 µM) was 63.8% and the viability, T/C (second compound 0.0316 µM, first compound 3 µM) was 60.5%. It also gave a viability, T/C (second compound 0.1 µM, first compound 0.00949 µM) of 55.4%, a viability, T/C (second compound 0.1 µM, first compound 0.03 µM) of 61.9% and a viability, T/C (second compound 0.1 µM, first compound 0.0949 µM) of 66.2%. The viability, T/C (second compound 0.1 µM, first compound 0.3 µM) was 67.3%, the viability, T/C (second compound 0.1 µM, first compound 0.949 µM) was 60% and the viability, T/C (second compound 0.1 µM, first compound 3 µM) was 42.5%. For the same compound, the viability, T/C (second compound 0.316 µM, first compound 0.00949 µM) was 47.5%, the viability, T/C (second compound 0.316 µM, first compound 0.03 µM) was 55.3% and the viability, T/C (second compound 0.316 µM, first compound 0.0949 µM) was 45.5%. It also gave a viability, T/C (second compound 0.316 µM, first compound 0.3 µM) of 46.7%, a viability, T/C (second compound 0.316 µM, first compound 0.949 µM) of 49.4% and a viability, T/C (second compound 0.316 µM, first compound 3 µM) of 45.2%. For the same compound, the viability, T/C (second compound 1 µM, first compound 0.00949 µM) was 41.2%, the viability, T/C (second compound 1 µM, first compound 0.03 µM) was 31.3% and the viability, T/C (second compound 1 µM, first compound 0.0949 µM) was 32.4%. It also gave a viability, T/C (second compound 1 µM, first compound 0.3 µM) of 35.4%, a viability, T/C (second compound 1 µM, first compound 0.949 µM) of 30.5% and a viability, T/C (second compound 1 µM, first compound 3 µM) of 27.8%.
